The values below come from patent US20220323406A1, “METHODS AND COMPOSITIONS FOR DIFFERENTIATING STEM CELLS” (Massachusetts Institute of Technology, priority 2019, published 2022).

What all share (settings): primary screen
Assay [1] relates to ENR+CD organoids (ISC to Paneth cell differentiation). Put plainly: Primary screen: CCh-stimulated lysozyme secretion LYZ.S, 2.5-D 384-well ENR+CD organoid differentiation. In kind it is cell-based, mouse. An excerpt:
(§1) High-throughput screening.

Assay [2] shares this test system. Put plainly: Primary screen: basal (non-stimulated) lysozyme secretion LYZ.NS, 2.5-D 384-well ENR+CD organoid differentiation. Type of assay: cell-based, mouse.
From the text: as §1

A further assay has as its system ENR+CD organoids. Put plainly: Primary screen: ATP (CellTiter-Glo 3D, CTG) cell number/viability, 2.5-D 384-well ENR+CD organoids.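 Further: compounds given at plating and again on day 3 over a 6-day differentiation from ENR+CV stem-cell-enriched precursors, ATP measured on day 6, plate median as control.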 For orientation: ATP-based viability assays read luminescence as a measure of living cells.

On to `C[C@@H]1CN(CC(=O)Nc2ccc3c(c2)Cc2cccc(-c4cc(=O)cc(N5CCOCC5)o4)c2S3)C[C@H](C)O1` [KU-60019], for which the “Dose.FC.LYZ.S (log2 fold change)” value in assay [1] (dose 0.08 uM) is recorded as 0.230; in assay [1] (dose 0.40 uM), 0.073; in assay [1] (dose 2.00 uM) it was −0.049; in assay [1] (dose 10.00 uM), −0.222. Further, the “Dose.FC.LYZ.NS (log2 fold change)” value was 0.042 in assay [2] (dose 0.08 uM), −0.001 in assay [2] (dose 0.40 uM), −0.015 in assay [2] (dose 2.00 uM) and −0.088 in assay [2] (dose 10.00 uM). Further, the “Z.LYZ.NS (standard z score)” value in assay [2] (dose 0.08 uM) is on record as 0.365; in assay [2] (dose 0.40 uM) it was −0.012; in assay [2] (dose 2.00 uM), −0.132; in assay [2] (dose 10.00 uM) it was −0.769. In addition, the “Dose.FC.CTG (log2 fold change)” value is 0.114 in the assay on ENR+CD organoids (dose 0.08 uM), 0.039 with ENR+CD organoids (dose 0.40 uM), 0.121 in the assay with ENR+CD organoids (dose 2.00 uM) and −0.522 in the assay with ENR+CD organoids (dose 10.00 uM).
Turning to `COC(=O)CCSCc1ccc(-c2onc(C)c2NC(=O)OC(C)c2ccccc2Cl)cc1` (centres unmarked) [Ki16198], the “Dose.FC.LYZ.S (log2 fold change)” value in assay [1] (dose 0.08 uM) is on record as 0.027; in assay [1] (dose 0.40 uM), 0.031; in assay [1] (dose 2.00 uM) it was −0.015; in assay [1] (dose 10.00 uM), −0.037. Moreover, the “Dose.FC.LYZ.NS (log2 fold change)” value in assay [2] (dose 0.08 uM) is given as 0.005; in assay [2] (dose 0.40 uM), −0.009; in assay [2] (dose 2.00 uM), 0.060; in assay [2] (dose 10.00 uM) it was −0.103. In addition, the “Z.LYZ.NS (standard z score)” value in assay [2] (dose 0.08 uM) is 0.044; in assay [2] (dose 0.40 uM), −0.076; in assay [2] (dose 2.00 uM) it was 0.519; in assay [2] (dose 10.00 uM) it was −0.899. In addition, the “Dose.FC.CTG (log2 fold change)” value in the assay on ENR+CD organoids (dose 0.08 uM) is recorded as −0.011; in the assay with ENR+CD organoids (dose 0.40 uM), −0.108; with ENR+CD organoids (dose 2.00 uM), −0.033; in the assay on ENR+CD organoids (dose 10.00 uM), 0.022. Also, the “Z.CTG (standard z score)” value is −0.026 in the assay with ENR+CD organoids (dose 0.08 uM), −0.258 with ENR+CD organoids (dose 0.40 uM), −0.078 in the assay with ENR+CD organoids (dose 2.00 uM) and 0.052 in the assay with ENR+CD organoids (dose 10.00 uM).
On to `Cc1noc(-c2ccc(CSCCC(=O)O)cc2)c1NC(=O)OC(C)c1ccccc1Cl` (centres unmarked) [Ki16425], for which the “Dose.FC.LYZ.S (log2 fold change)” value is on record as 0.022 in assay [1] (dose 0.08 uM), 0.114 in assay [1] (dose 0.40 uM), −0.021 in assay [1] (dose 2.00 uM) and −0.071 in assay [1] (dose 10.00 uM). Also, the “Dose.FC.LYZ.NS (log2 fold change)” value in assay [2] (dose 0.08 uM) is reported as 0.001; in assay [2] (dose 0.40 uM), 0.117; in assay [2] (dose 2.00 uM) it was −0.008; in assay [2] (dose 10.00 uM), −0.038. Moreover, the “Z.LYZ.NS (standard z score)” value is recorded as 0.005 in assay [2] (dose 0.08 uM), 1.017 in assay [2] (dose 0.40 uM), −0.069 in assay [2] (dose 2.00 uM) and −0.327 in assay [2] (dose 10.00 uM). In addition, the “Dose.FC.CTG (log2 fold change)” value in the assay on ENR+CD organoids (dose 0.08 uM) is −0.051; in the assay with ENR+CD organoids (dose 0.40 uM) it was −0.002; in the assay on ENR+CD organoids (dose 2.00 uM), −0.078; in the assay on ENR+CD organoids (dose 10.00 uM), −0.165. Also, the “Z.CTG (standard z score)” value in the assay on ENR+CD organoids (dose 0.08 uM) is given as −0.121; in the assay with ENR+CD organoids (dose 0.40 uM) it was −0.005; with ENR+CD organoids (dose 2.00 uM), −0.185; with ENR+CD organoids (dose 10.00 uM) it was −0.394.
